Measured values from article PMC10285260, “Processive kinetics in the three-step lanosterol 14α-demethylation reaction catalyzed by human cytochrome P450 51A1” (The Journal of Biological Chemistry, 2023).
Read-outs that look alike come from different tables or passages of the source.

Legend:
Parameters in all cases: made in house; host or cells: Escherichia coli
human P450 51A1 [1] = molecular target: T1, human P450 51A1 (Homo sapiens, UniProt Q16850); assay: Spectral (difference spectroscopy) Kd estimates of P450 51A1-sterol complexes; format: binding
T1 sequence (Q16850 1-509): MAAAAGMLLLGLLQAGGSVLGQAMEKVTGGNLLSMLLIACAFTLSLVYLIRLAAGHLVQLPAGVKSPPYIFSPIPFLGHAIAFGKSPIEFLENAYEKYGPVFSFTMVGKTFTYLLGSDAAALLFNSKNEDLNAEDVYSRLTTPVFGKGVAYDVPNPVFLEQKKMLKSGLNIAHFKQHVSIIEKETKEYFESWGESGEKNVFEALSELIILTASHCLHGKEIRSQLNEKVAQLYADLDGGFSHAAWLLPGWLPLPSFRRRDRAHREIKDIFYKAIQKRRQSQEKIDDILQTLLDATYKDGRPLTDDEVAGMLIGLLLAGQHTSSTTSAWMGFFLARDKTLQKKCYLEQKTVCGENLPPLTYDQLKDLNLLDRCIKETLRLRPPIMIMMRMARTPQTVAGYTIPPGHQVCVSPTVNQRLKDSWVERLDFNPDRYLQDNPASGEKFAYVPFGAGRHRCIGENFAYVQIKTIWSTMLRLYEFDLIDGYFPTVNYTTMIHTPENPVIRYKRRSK
Description: Kd values were estimated by difference spectroscopy. P450 51A1 (1.0 μM) was in each of two glass cuvettes (in 100 mM potassium phosphate buffer, pH 7.4) and a baseline was recorded (OLIS-Amino DW2a). Aliquots of a solution of each sterol–HPCD complex were added to the sample cuvette and an equivalent amount of HPCD was added to the reference cuvette, and spectra were recorded. The time between the collection of individual spectra was ∼3 min. The maximum absorbance difference (usually ΔA390-A418) was plotted versus the nominal concentration of added sterol, and the data were fit to hyperbolae in GraphPad Prism software (GraphPad, https://www.graphpad.com), using a quadratic equation to correct the ligand concentration for the enzyme-bound concentration (used as Y=B+(A/2)∗(1/E)∗((Kd+E+X)-sqrt((Kd + E+X)^∧2-(4∗E∗X)) in Prism software). The linear regression fits include the internal error estimates (SE).

human P450 51A1 [2] = molecular target: T1, human P450 51A1; assay: Stopped-flow koff measurements of P450 51A1-sterol complexes with ketoconazole trap; format: binding; conditions: 23 °C, 10 μM ketoconazole trap, 1 μM P450 51A1
Description: All assays were done at 23 °C in an OLIS-RSM 1000 stopped-flow spectrophotometer, collecting data every 1 ms over a range of 332 to 565 nm with slit widths of 1.24 mm (8 nm bandpass) and gratings with 400 lines/mm and 500 nm blaze. One syringe contained 20 μM ketoconazole dissolved in 100 mM potassium phosphate buffer (pH 7.4). In a preliminary experiment in which this was mixed with an equal volume of 2 μM P450 51A1 (same buffer), the observed rate of binding (ΔA430) was 25 s^−1.
P450 51A1 (2 μM) was premixed with an equivalent concentration of each of the sterols (in HPCD). Each of these solutions was placed in a drive syringe and rapidly mixed with 20 μM ketoconazole (yielding final concentrations of 1 μM P450 51A1 and 10 μM ketoconazole). The rate of the ΔA430-A390 change was used as the koff rate, that is, the rate at which the sterol left the P450 and allowed it to bind to the trap ligand ketoconazole.

human P450 51A1 [3] = molecular target: T1, human P450 51A1; assay: Single-turnover rapid-quench kinetics of [3-3H]-dihydrolanosterol oxidation (radio-HPLC); format: biochemical
Description: All products were separated and quantified by radio-HPLC (Fig. S24).
Samples (held at 4 °C) were injected (45 μl) onto a Nova-Pak 3.9 mm × 150 mm (4 μm) octadecylsilane (C18) HPLC column (held at 23 °C). The products were separated at a flow rate of 1.0 ml min^−1 using an isocratic mobile phase composed of CH3CN (only) as was done for the LC-UV assays (above). The eluate from the column was mixed (1:2, v-v) with FlowLogic U scintillation cocktail, and radioactivity (^3H) was detected on a β-RAM Model 5 system (IN/US, LabLogic) (Fig. S24). Product formation was assessed as the relative contribution of each peak (in CPM) to the summed peak area of substrate and product(s).
The single-turnover experiments were performed using a KinTek rapid quench-flow apparatus (KinTek). This machine functions by forcing equal volumes (∼19 μl) of two separate solutions into a central mixing chamber, where the components are allowed to incubate for a predetermined period of time before an excess volume of quench solution (∼160 μl) stops the reaction and expels the mixture from the apparatus. […] After the predetermined incubation period, the reaction (37 °C) was quenched with HCl (1 M), and the mixture (∼200 μl) was collected into vials. The products of five identical reactions (time points) were combined and were extracted into CH2Cl2 (5 ml). An aliquot (4 ml) of the lower (organic) layer was removed into a fresh vial, and the extraction was repeated to maximize sample recovery. The pooled organic fraction (∼8 ml) was brought to dryness under a stream of N2 gas, and the residue was redissolved in 60 μl of CH3OH and transferred to LC vials for analysis.

[4] = 1.0 μM P450 51A1, quadratic fit
[5] = 1.0 μM P450 51A1, quadratic fit, read-out: Kd
[6] = time 0.05 s, start 7 µM dihydrolanosterol

Compound | Kd (human P450 51A1 [1]; [4]) | Kd (human P450 51A1 [1]; [5]) [nM] | koff (human P450 51A1 [2]) [s⁻¹] | concentration in single-turnover reaction (human P450 51A1 [3]; [6]) [µM] | concentration in single-turnover reaction (human P450 51A1 [3]; time 0.1 s) [µM] | concentration in single-turnover reaction (human P450 51A1 [3]; time 0.15 s) [µM] | concentration in single-turnover reaction (human P450 51A1 [3]; time 0.2 s) [µM] | concentration in single-turnover reaction (human P450 51A1 [3]; time 0.3 s) [µM] | concentration in single-turnover reaction (human P450 51A1 [3]; time 0.4 s) [µM] | concentration in single-turnover reaction (human P450 51A1 [3]; time 0.6 s) [µM] | concentration in single-turnover reaction (human P450 51A1 [3]; time 0.8 s) [µM] | concentration in single-turnover reaction (human P450 51A1 [3]; time 1 s) [µM] | concentration in single-turnover reaction (human P450 51A1 [3]; time 1.2 s) [µM] | concentration in single-turnover reaction (human P450 51A1 [3]; time 1.6 s) [µM] | concentration in single-turnover reaction (human P450 51A1 [3]; time 2 s) [µM] | concentration in single-turnover reaction (human P450 51A1 [3]; time 3 s) [µM] | concentration in single-turnover reaction (human P450 51A1 [3]; time 4 s) [µM] | concentration in single-turnover reaction (human P450 51A1 [3]; time 7 s) [µM] | also measured
CC(C)CCCC(C)[C@H]1CC[C@@]2(CO)C3=C(CC[C@]12C)[C@@]1(C)CC[C@H](O)C(C)(C)C1CC3 (stereo partly drawn) [14α-CH2OH dihydrolanosterol, 24,25-dihydro-14α-CH2OH lanosterol] | sub-μM | 20 ± 40 | 0.022 ± 0.001 | 2.2428 | 3.1584 | 2.7482 | 2.961 | 2.3331 | 1.9978 | 1.1711 | 0.9849 | 0.4431 | 0 | 0 | 0 | 0 | 0 | 0 | –
CC(C)CCCC(C)[C@H]1CC[C@@]2(C=O)C3=C(CC[C@]12C)[C@@]1(C)CC[C@H](O)C(C)(C)C1CC3 (stereo partly drawn) [14α-CHO dihydrolanosterol, 24,25-dihydro-14α-formyl lanosterol] | sub-μM | 120 ± 30 | 0.059 ± 0.001 | 0 | 0.8505 | 1.1396 | 1.6401 | 1.848 | 1.8837 | 1.7976 | 1.4126 | 1.4476 | 1.3349 | 0.8218 | 0.7105 | 0 | 0 | 0 | –
CC(C)CCCC(C)[C@H]1CC[C@@]2(C)C3=C(CC[C@]12C)[C@@]1(C)CC[C@H](O)C(C)(C)C1CC3 (stereo partly drawn) [dihydrolanosterol, 24,25-dihydrolanosterol] | sub-μM | – | 0.054 ± 0.01 | 4.7572 | 2.9911 | 2.8308 | 1.974 | 2.0671 | 1.9166 | 1.5253 | 1.5841 | 1.0563 | 1.1711 | 1.3601 | 1.0864 | 1.1137 | 0.3647 | 0 | Kd (human P450 51A1 [1]): 230 ± 100 nM; kobs/Kd (human P450 51A1 [3]; first step, 7 s^−1/0.23 μM): 3e+07 M⁻¹ s⁻¹; fraction of initial material persisting until > 4 s (human P450 51A1 [3]; single turnover): ~20%; time in which the reaction was completed (human P450 51A1 [3]; single turnover): 7 s; time of 50% decrease of substrate concentration (human P450 51A1 [3]; single turnover): 0.10 s; first-order exponential decay rate of substrate concentration (human P450 51A1 [3]; single turnover, 37 °C): 8.7 s⁻¹; apparent rate of overall oxidation to dihydro FF-MAS, single exponential fit (human P450 51A1 [3]; single turnover, even with the lag): 0.8 s⁻¹
